Literature values in patent publication US20070110685A1, “Combination therapy for the treatment of immunoinflammatory disorders” (priority 2005, published 2007).

CO[C@H]1C[C@@H]2CC[C@@H](C)[C@@](O)(O2)C(=O)C(=O)N2CCCC[C@H]2C(=O)O[C@H]([C@H](C)C[C@@H]2CC[C@@H](O)[C@H](OC)C2)CC(=O)[C@H](C)/C=C(\C)[C@@H](O)[C@@H](OC)C(=O)[C@H](C)C[C@H](C)/C=C/C=C/C=C/1C [Rapamycin]
absorption after oral administration: absorbed rapidly and completely
